From PubChem BioAssay AID1963839 (Molecular Pharmacology Branch, DTP, NCI, 2024)

Tested on: 817829-284-R-J1-PDC complex spheroid viability
Test: Anticancer human tumor 817829-284-R-J1-PDC patient-derived colon adenocarcinoma cell line growth inhibition [POLQ]
Conditions: for IC50: curve of first compound; for viability, T/C: stronger effect = lower value
How it was run: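 Complex spheroid viability model combining PDC tumour cells with endothelial (HUVEC) and MSC stromal cells. Novobiocin, ART-558 or RP6685 were tested singly and in combination with standard and investigational anticancer drugs. Each was titrated in half-log steps from near clinical Cmax, or from 10 microM where Cmax was unknown.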

[1] = second compound 0.0316 µM, first compound 0.0316 µM
[2] = second compound 0.0316 µM, first compound 0.1 µM
[3] = second compound 0.0316 µM, first compound 0.316 µM
[4] = second compound 0.0316 µM, first compound 1 µM
[5] = second compound 0.0316 µM, first compound 3.16 µM
[6] = second compound 0.0316 µM, first compound 10 µM
[7] = second compound 0.1 µM, first compound 0.0316 µM
[8] = second compound 0.1 µM, first compound 0.1 µM
[9] = second compound 0.1 µM, first compound 0.316 µM
[10] = second compound 0.1 µM, first compound 1 µM
[11] = second compound 0.1 µM, first compound 3.16 µM
[12] = second compound 0.1 µM, first compound 10 µM
[13] = second compound 0.316 µM, first compound 0.0316 µM
[14] = second compound 0.316 µM, first compound 0.1 µM
[15] = second compound 0.316 µM, first compound 0.316 µM
[16] = second compound 0.316 µM, first compound 1 µM
[17] = second compound 0.316 µM, first compound 3.16 µM
[18] = second compound 0.316 µM, first compound 10 µM
[19] = second compound 1 µM, first compound 0.0316 µM
[20] = second compound 1 µM, first compound 0.1 µM
[21] = second compound 1 µM, first compound 0.316 µM
[22] = second compound 1 µM, first compound 1 µM
[23] = second compound 1 µM, first compound 3.16 µM
[24] = second compound 1 µM, first compound 10 µM
[25] = second compound 3.16 µM, first compound 0.0316 µM
[26] = second compound 3.16 µM, first compound 0.1 µM
[27] = second compound 3.16 µM, first compound 0.316 µM
[28] = second compound 3.16 µM, first compound 1 µM
[29] = second compound 3.16 µM, first compound 3.16 µM
[30] = second compound 3.16 µM, first compound 10 µM
[31] = second compound 10 µM, first compound 0.0316 µM
[32] = second compound 10 µM, first compound 0.1 µM
[33] = second compound 10 µM, first compound 0.316 µM
[34] = second compound 10 µM, first compound 1 µM
[35] = second compound 10 µM, first compound 3.16 µM
[36] = second compound 10 µM, first compound 10 µM
[37] = second compound 0.0316 µM, first compound 0.00316 µM
[38] = second compound 0.0316 µM, first compound 0.01 µM
[39] = second compound 0.1 µM, first compound 0.00316 µM
[40] = second compound 0.1 µM, first compound 0.01 µM
[41] = second compound 0.316 µM, first compound 0.00316 µM
[42] = second compound 0.316 µM, first compound 0.01 µM
[43] = second compound 1 µM, first compound 0.00316 µM
[44] = second compound 1 µM, first compound 0.01 µM
[45] = second compound 3.16 µM, first compound 0.00316 µM
[46] = second compound 3.16 µM, first compound 0.01 µM
[47] = second compound 10 µM, first compound 0.00316 µM
[48] = second compound 10 µM, first compound 0.01 µM
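Further: spheroids exposed to compounds for 7 days.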
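Wherever viability, T/C is given: 100% = DMSO vehicle-treated spheroids.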

## Nc1ccn(C2OC(CO)C(O)C2(F)F)c(=O)n1 (stereo not drawn) + Cc1cccc(N(C)C(=O)C2C(O)CCN2c2nc(C)cc(C(F)(F)F)c2C#N)c1
Second compound 0.0316 µM
  IC50: < 31.6 nM
Second compound 0.1 µM
  IC50: < 31.6 nM
Second compound 0.316 µM
  IC50: < 31.6 nM
Second compound 1 µM
  IC50: < 31.6 nM
Second compound 3.16 µM
  IC50: < 31.6 nM
Second compound 10 µM
  IC50: < 31.6 nM
[1]
  viability, T/C: 4.93%
[2]
  viability, T/C: 6.34%
[3]
  viability, T/C: 5.78%
[4]
  viability, T/C: 4.47%
[5]
  viability, T/C: 4.13%
[6]
  viability, T/C: 3%
[7]
  viability, T/C: 5.1%
[8]
  viability, T/C: 4.91%
[9]
  viability, T/C: 5.63%
[10]
  viability, T/C: 4.62%
[11]
  viability, T/C: 3.58%
[12]
  viability, T/C: 2.89%
[13]
  viability, T/C: 6.1%
[14]
  viability, T/C: 5.35%
[15]
  viability, T/C: 5.35%
[16]
  viability, T/C: 5.17%
[17]
  viability, T/C: 4.11%
[18]
  viability, T/C: 2.77%
[19]
  viability, T/C: 4.92%
[20]
  viability, T/C: 5.99%
[21]
  viability, T/C: 4.9%
[22]
  viability, T/C: 4.77%
[23]
  viability, T/C: 3.54%
[24]
  viability, T/C: 2.95%
[25]
  viability, T/C: 5.03%
[26]
  viability, T/C: 5.55%
[27]
  viability, T/C: 6.02%
[28]
  viability, T/C: 4.31%
[29]
  viability, T/C: 4.69%
[30]
  viability, T/C: 3.24%
[31]
  viability, T/C: 6.79%
[32]
  viability, T/C: 5.07%
[33]
  viability, T/C: 5.13%
[34]
  viability, T/C: 4.16%
[35]
  viability, T/C: 4.17%
[36]
  viability, T/C: 2.99%

## COc1cccc(OCCCN)c1-c1cc(Nc2cnc(C#N)cn2)n[nH]1 + COC1C(OC(N)=O)C(O)C(Oc2ccc3c(O)c(NC(=O)c4ccc(O)c(CC=C(C)C)c4)c(=O)oc3c2C)OC1(C)C
Second compound 0.0316 µM
  IC50: < 3.16 nM
Second compound 0.1 µM
  IC50: < 3.16 nM
Second compound 0.316 µM
  IC50: < 3.16 nM
Second compound 1 µM
  IC50: < 3.16 nM
Second compound 3.16 µM
  IC50: < 3.16 nM
Second compound 10 µM
  IC50: < 3.16 nM
[37]
  viability, T/C: 29.9%
[38]
  viability, T/C: 8.3%
[1]
  viability, T/C: 5.67%
[2]
  viability, T/C: 5.85%
[3]
  viability, T/C: 4.68%
[4]
  viability, T/C: 3.39%
[39]
  viability, T/C: 26%
[40]
  viability, T/C: 11.2%
[7]
  viability, T/C: 6.67%
[8]
  viability, T/C: 5.76%
[9]
  viability, T/C: 5.35%
[10]
  viability, T/C: 3.07%
[41]
  viability, T/C: 29.5%
[42]
  viability, T/C: 8.79%
[13]
  viability, T/C: 6.28%
[14]
  viability, T/C: 5.55%
[15]
  viability, T/C: 4.77%
[16]
  viability, T/C: 3.42%
[43]
  viability, T/C: 39.1%
[44]
  viability, T/C: 8.54%
[19]
  viability, T/C: 6.62%
[20]
  viability, T/C: 4.99%
[21]
  viability, T/C: 4.97%
[22]
  viability, T/C: 3.65%
[45]
  viability, T/C: 44.4%
[46]
  viability, T/C: 8.05%
[25]
  viability, T/C: 5.78%
[26]
  viability, T/C: 4.98%
[27]
  viability, T/C: 4.52%
[28]
  viability, T/C: 4.11%
[47]
  viability, T/C: 26.2%
[48]
  viability, T/C: 8.47%
[31]
  viability, T/C: 6.63%
[32]
  viability, T/C: 5.63%
[33]
  viability, T/C: 4.76%
[34]
  viability, T/C: 4.08%

## COc1ccc([C@@H](O)c2cc(-c3ncnc4cc(N5CCOCC5)ccc34)c(F)cc2Cl)nn1 + COC1C(OC(N)=O)C(O)C(Oc2ccc3c(O)c(NC(=O)c4ccc(O)c(CC=C(C)C)c4)c(=O)oc3c2C)OC1(C)C
Second compound 0.0316 µM
  IC50: 678 nM
Second compound 0.1 µM
  IC50: 1040 nM
Second compound 0.316 µM
  IC50: 797 nM
Second compound 1 µM
  IC50: 1010 nM
Second compound 3.16 µM
  IC50: 497 nM
Second compound 10 µM
  IC50: 579 nM
[1]
  viability, T/C: 111%
[2]
  viability, T/C: 61.9%
[3]
  viability, T/C: 76.9%
[4]
  viability, T/C: 44.5%
[5]
  viability, T/C: 22.8%
[6]
  viability, T/C: 11.9%
[7]
  viability, T/C: 117%
[8]
  viability, T/C: 79.6%
[9]
  viability, T/C: 68.8%
[10]
  viability, T/C: 55%
[11]
  viability, T/C: 26.6%
[12]
  viability, T/C: 18.5%
[13]
  viability, T/C: 98.7%
[14]
  viability, T/C: 86%
[15]
  viability, T/C: 58.4%
[16]
  viability, T/C: 53.9%
[17]
  viability, T/C: 25.5%
[18]
  viability, T/C: 18.9%
[19]
  viability, T/C: 102%
[20]
  viability, T/C: 88.8%
[21]
  viability, T/C: 89.4%
[22]
  viability, T/C: 49.2%
[23]
  viability, T/C: 25.9%
[24]
  viability, T/C: 18.9%
[25]
  viability, T/C: 97.1%
[26]
  viability, T/C: 86%
[27]
  viability, T/C: 59.6%
[28]
  viability, T/C: 34.2%
[29]
  viability, T/C: 22.3%
[30]
  viability, T/C: 16%
[31]
  viability, T/C: 135%
[32]
  viability, T/C: 62.2%
[33]
  viability, T/C: 80%
[34]
  viability, T/C: 43.9%
[35]
  viability, T/C: 27.4%
[36]
  viability, T/C: 16.2%

## COc1cccc(OCCCN)c1-c1cc(Nc2cnc(C#N)cn2)n[nH]1 + Cc1cccc(N(C)C(=O)C2C(O)CCN2c2nc(C)cc(C(F)(F)F)c2C#N)c1
Second compound 0.0316 µM
  IC50: 4.8 nM
Second compound 0.1 µM
  IC50: 5.63 nM
Second compound 0.316 µM
  IC50: 5.68 nM
Second compound 1 µM
  IC50: 5.28 nM
Second compound 3.16 µM
  IC50: 4.83 nM
Second compound 10 µM
  IC50: 5.22 nM
[37]
  viability, T/C: 70.3%
[38]
  viability, T/C: 14.5%
[1]
  viability, T/C: 5.94%
[2]
  viability, T/C: 4.36%
[3]
  viability, T/C: 4.2%
[4]
  viability, T/C: 2.81%
[39]
  viability, T/C: 86.8%
[40]
  viability, T/C: 13.4%
[7]
  viability, T/C: 5.69%
[8]
  viability, T/C: 4.81%
[9]
  viability, T/C: 4.14%
[10]
  viability, T/C: 2.6%
[41]
  viability, T/C: 84.9%
[42]
  viability, T/C: 16.4%
[13]
  viability, T/C: 4.73%
[14]
  viability, T/C: 4.19%
[15]
  viability, T/C: 4.39%
[16]
  viability, T/C: 3.1%
[43]
  viability, T/C: 78%
[44]
  viability, T/C: 15.3%
[19]
  viability, T/C: 5.38%
[20]
  viability, T/C: 4.93%
[21]
  viability, T/C: 3.71%
[22]
  viability, T/C: 3.25%
[45]
  viability, T/C: 69.9%
[46]
  viability, T/C: 16%
[25]
  viability, T/C: 5.86%
[26]
  viability, T/C: 5.17%
[27]
  viability, T/C: 4.05%
[28]
  viability, T/C: 2.85%
[47]
  viability, T/C: 76.6%
[48]
  viability, T/C: 15.7%
[31]
  viability, T/C: 5.87%
[32]
  viability, T/C: 4.92%
[33]
  viability, T/C: 4.34%
[34]
  viability, T/C: 3.21%
